Drawing on ChEMBL document CHEMBL4138307, “Click-Addressable Cassette for Photoaffinity Labeling” (ACS Med Chem Lett, 2018), this text covers Activity for two compounds.

Calls of active or inactive are those of the source. The calls are words filed in the database; no cut-off is given here.

The target in assay [1] is NT-3 growth factor receptor (Homo sapiens) (UniProt Q16288). As to the kind of experiment: Binding affinity to recombinant TrkC (unknown origin) at 10 to 25 uM incubated for 1 hr in dark in presence of azide fluor 488 staining by SDS-PAGE based fluorescence imaging.
Assay [2] has the same target. The experiment in a line: Binding affinity to recombinant TrkC (unknown origin) at 10 to 25 uM preincubated for 1 hr in dark followed by irradiation with LED UV flashlight at 365 nm for 30 mins in presence of azide fluor 488 staining by SDS-PAGE based fluorescence imaging.
Assay [3] shares this target. As to the kind of experiment: Binding affinity to TrkC (unknown origin) expressed in mouse NIH3T3 cell lysate at 10 uM preincubated for 3 hrs in dark followed by irradiation with LED UV flashlight at 365 nm for 30 mins by biotin-azide/neutravidin agarose gel based Western blot analysis.
The target is the same in assay [4]. As to the kind of experiment: Binding affinity to recombinant TrkC (unknown origin) at 10 to 25 uM preincubated for 1 hr in dark followed by irradiation with LED UV flashlight at 365 nm for 30 mins in presence of 80 fold excess of (2S,2'S)-1,1'-((6-(4-(benzyl(prop-2-yn-1-yl)amino)piperidin-1-yl)-1,3,5-triazine-2,4-diyl)bis(piperazine-4,1-diyl))bis(2-(4-((1S,2S)-1-amino-2-methylbutyl)-1H-1,2,3-triazol-1-yl)-3-(4-hydroxyphenyl)propan-1-one) by SDS-PAGE based fluorescence imaging.

The target in assay [5] is Carbonic anhydrase 9 (Homo sapiens) (UniProt Q16790). The experiment in a line: Binding affinity to recombinant carbonic anhydrase 9 (unknown origin) at 5 to 10 uM preincubated for 2 hrs in dark followed by irradiation with LED UV flashlight at 365 nm for 30 mins in presence of azide fluor 488 staining by SDS-PAGE based fluorescence imaging.
Assay [6] has the same target. The experiment in a line: Binding affinity to recombinant carbonic anhydrase 9 (unknown origin) at 5 to 10 uM preincubated for 2 hrs in dark followed by irradiation with LED UV flashlight at 365 nm for 30 mins in presence of coomassie brilliant blue G250 staining by SDS-PAGE based fluorescence imaging.
The target is the same in assay [7]. As to the kind of experiment: Binding affinity to carbonic anhydrase 9 in human MDA-MB-231 cell lysate at 5 uM preincubated for 3 hrs in dark followed by irradiation with LED UV flashlight at 365 nm for 30 mins in presence of 4-(2-((4-(4-(benzyl(prop-2-yn-1-yl)amino)piperidin-1-yl)-6-chloro-1,3,5-triazin-2-yl)amino)ethyl)benzenesulfonamide by biotin-azide/neutravidin agarose gel based Western blot analysis. A general note: A western blot detects proteins with antibodies after separation by electrophoresis.

Assay [8] shares this target. As to the kind of experiment: Binding affinity to carbonic anhydrase 9 in human MDA-MB-231 cell lysate at 5 uM preincubated for 3 hrs in dark followed by irradiation with LED UV flashlight at 365 nm for 30 mins by biotin-azide/neutravidin agarose gel based Western blot analysis.
For assay [9] the target is unchanged. The experiment in a line: Binding affinity to recombinant carbonic anhydrase 9 (unknown origin) at 5 to 10 uM preincubated for 2 hrs in dark followed by irradiation with LED UV flashlight at 365 nm for 30 mins in presence of 50 fold excess of 4-(2-((4-(4-(benzyl(prop-2-yn-1-yl)amino)piperidin-1-yl)-6-chloro-1,3,5-triazin-2-yl)amino)ethyl)benzenesulfonamide by SDS-PAGE based fluorescence imaging.

Chain of NT-3 growth factor receptor (Homo sapiens) (Q16288 32-839 limits assumed): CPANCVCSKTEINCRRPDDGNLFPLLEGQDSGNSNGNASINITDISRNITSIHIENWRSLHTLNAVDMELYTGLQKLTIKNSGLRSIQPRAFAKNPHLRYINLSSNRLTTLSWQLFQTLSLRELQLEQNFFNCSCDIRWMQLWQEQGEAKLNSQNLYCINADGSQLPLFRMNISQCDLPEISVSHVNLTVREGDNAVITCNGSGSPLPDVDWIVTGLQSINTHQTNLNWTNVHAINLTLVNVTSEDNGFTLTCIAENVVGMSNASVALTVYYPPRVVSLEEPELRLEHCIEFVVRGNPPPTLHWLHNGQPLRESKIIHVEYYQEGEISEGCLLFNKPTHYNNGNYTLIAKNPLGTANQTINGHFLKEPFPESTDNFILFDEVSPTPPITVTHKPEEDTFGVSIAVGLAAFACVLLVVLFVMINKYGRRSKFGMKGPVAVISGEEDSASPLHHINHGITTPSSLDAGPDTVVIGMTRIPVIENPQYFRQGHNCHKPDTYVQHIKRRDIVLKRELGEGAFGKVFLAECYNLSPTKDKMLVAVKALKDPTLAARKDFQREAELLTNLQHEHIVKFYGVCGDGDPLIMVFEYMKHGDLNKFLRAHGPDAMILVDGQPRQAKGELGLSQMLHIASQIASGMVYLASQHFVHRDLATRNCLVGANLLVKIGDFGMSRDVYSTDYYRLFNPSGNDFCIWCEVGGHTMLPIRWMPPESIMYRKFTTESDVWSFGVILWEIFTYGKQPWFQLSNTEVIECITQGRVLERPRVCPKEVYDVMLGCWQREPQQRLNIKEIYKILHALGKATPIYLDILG

As to `C#CCN(Cc1ccc(C2(C(F)(F)F)N=N2)cc1)C1CCN(c2nc(N3CCN(C(=O)[C@H](Cc4ccc(O)cc4)n4cc([C@@H](N)[C@@H](C)CC)nn4)CC3)nc(N3CCN(C(=O)[C@H](Cc4ccc(O)cc4)n4cc([C@@H](N)[C@@H](C)CC)nn4)CC3)n2)CC1`, the outcome in [1] and in assay [4] was inactive. Further, the result in [2] and in assay [3] was Active.
Turning to `C#CCN(Cc1ccc(C2(C(F)(F)F)N=N2)cc1)C1CCN(c2nc(Cl)nc(NCCc3ccc(S(N)(=O)=O)cc3)n2)CC1`, the result in [5], in assay [6] and in [8] was Active. For the same compound, the result in assay [7] and in assay [9] was inactive.
